Source: patent US6596772B1, “Phosphate mimics and methods of treatment using phosphatase inhibitors” (Sugen, Inc., priority 1999, dated 2003)
Read-outs that look alike come from different tables or passages of the source.

What was measured:
Test in all cases: PTP IC50 assay, fluorescent substrate DiFMUP
Type in all cases: biochemical
PTP EPSILON = target: T1, PTP EPSILON (Homo sapiens, UniProt P23469)
T1 construct: made in house; host or cells: Sf-9 insect cells (pFastBac-G2T); a pGEX 6P-1 construct also existed
T1 sequence (P23469 80-393 limits assumed): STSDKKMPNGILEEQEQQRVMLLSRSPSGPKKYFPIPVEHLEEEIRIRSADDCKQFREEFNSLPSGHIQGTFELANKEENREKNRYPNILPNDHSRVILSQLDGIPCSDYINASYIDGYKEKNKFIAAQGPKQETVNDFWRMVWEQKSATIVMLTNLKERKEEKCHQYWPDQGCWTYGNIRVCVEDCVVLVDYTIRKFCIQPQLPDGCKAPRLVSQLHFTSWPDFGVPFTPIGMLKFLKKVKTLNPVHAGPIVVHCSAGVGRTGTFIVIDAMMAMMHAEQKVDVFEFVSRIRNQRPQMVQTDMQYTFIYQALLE
Text: The PTPepsilon cDNA was amplified from human placenta single-strand cDNA (Clontech RNA) using the following oligonucleotides: 5′oligo: 5′-[…]-3′ (SEQ ID NO: 6) 3′oligo: 5′-[…]-3′ (SEQ ID NO: 7) After cloning this PCR product into the Bam HI/Xho I sites of pGEX 6P-1, this phosphatase was subcloned using the same restriction sites in pFastBac-G2T.
(§1) The following in vitro assay procedure is preferred to determine the level of activity and effect of the different compounds of the present invention on one or more of the PTPs. Similar assays can be designed along the same lines for any PTP using techniques well known in the art.
(§2) The catalytic assays described herein are performed in a 96-well format. The general procedure begins with the determination of PTP optimal pH using a three-component buffer system that minimizes ionic strength variations across a wide range of buffer pH. Next, the Michaelis-Menten constant, or Km, is determined for the substrate 6,8-difluoro-4-methylumbelliferyl phosphate (DiFMUP). This Km value is subsequently used as the substrate reaction concentration for compound screening. Finally, the test PTP is exposed to varying concentrations of compound for fifteen minutes and allowed to react with substrate for ten minutes. The results are plotted as percent inhibition versus compound concentration and the IC50 interpolated from the plot.
(§3) All assays were performed using DiFMUP as substrate. The optimum pH and substrate Km was determined for each PTP used.
(§4) PTPase activity was assayed at 25° C. in a 100-μl reaction mixture containing an appropriate concentration of DiFMUP as substrate. The reaction was initiated by addition of the purified PTP and quenched after 10 min by addition of 1% H2O2/100 mM NaCl. The non-enzymatic hydrolysis of the substrate was corrected by measuring the control without the addition of the enzyme. The amount of DiFMU produced was determined from the increase in the fluorescence (360 nm excitation/460 nm emission) over that of background in the absence of PTPase. To determine the kinetic parameter, Km, the initial velocities were measured at various substrate concentrations and the data were fitted to the Michaelis equation where velocity=(Vmax*[S])/(Km+[S]), and [S]=substrate reaction concentration.
(§5) The effect of the compounds on PTP was evaluated at 25° C. using DiFMUP as substrate. PTP was pre-incubated for fifteen minutes with various concentrations of compound. Substrate was then added at a fixed concentration (usually equal to the Km previously calculated). After 10 minutes, the reaction was quenched. The hydrolysis of DiFMUP was followed as described above. The percent inhibition was calculated as follows: Percent Inhibition=[(control signal−compound signal)/control signal]×100%. The IC50 was then determined by interpolation of a percent inhibition versus compound concentration plot.
(§6) Plasmids designed for bacterial GST-PTP fusion protein expression were derived by insertion of PCR-generated human PTP fragments into pGEX vectors (Pharmacia Biotech). Several of these constructs were then used to subclone phosphatases into pFastBac-1 for expression in Sf-9 insect cells. Oligonucleotides used for the initial amplification of PTP genes are as described above. The cDNAs were prepared using the Gilbo BRL superscript preamplification system on RNAs purchased from Clontech.

PTP SHP2 = target: T2, PTP SHP2 (Homo sapiens, UniProt Q06124)
T2 construct: The catalytic domain was amplified using the following oligonucleotides; made in house; host or cells: Sf-9 insect cells (pFastBac-G2T)
T2 sequence (Q06124 247-517 limits assumed): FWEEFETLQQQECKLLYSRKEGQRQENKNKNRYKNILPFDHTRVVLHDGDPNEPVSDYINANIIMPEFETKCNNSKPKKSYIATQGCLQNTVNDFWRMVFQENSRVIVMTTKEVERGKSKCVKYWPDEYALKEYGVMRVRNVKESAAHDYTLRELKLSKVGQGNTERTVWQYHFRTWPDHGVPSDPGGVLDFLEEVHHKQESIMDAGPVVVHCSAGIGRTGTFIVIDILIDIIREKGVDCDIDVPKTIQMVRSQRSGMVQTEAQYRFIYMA
Text: SHP-2 cDNA was used as described earlier (Vogel W., et al.,1993, Science, 259:1611-4). The catalytic domain was amplified using the following oligonucleotides 5′oligo: 5′-[…]-3′ (SEQ ID NO: 2) 3′oligo: 5′-[…]-3′ (SEQ ID NO: 3) and subsequently subcloned into BamH1-Xba-1 sites. It was then ligated into pfas Bac-G2T BamH1-Xba-1 sites.
as §1, §2, §3, §4, §5, §6

PTP 1B = target: T3, PTP 1B (Homo sapiens, UniProt P18031)
T3 construct: made in house; host or cells: Sf-9 insect cells (pFastBac-G2T)
T3 sequence (P18031 1-435): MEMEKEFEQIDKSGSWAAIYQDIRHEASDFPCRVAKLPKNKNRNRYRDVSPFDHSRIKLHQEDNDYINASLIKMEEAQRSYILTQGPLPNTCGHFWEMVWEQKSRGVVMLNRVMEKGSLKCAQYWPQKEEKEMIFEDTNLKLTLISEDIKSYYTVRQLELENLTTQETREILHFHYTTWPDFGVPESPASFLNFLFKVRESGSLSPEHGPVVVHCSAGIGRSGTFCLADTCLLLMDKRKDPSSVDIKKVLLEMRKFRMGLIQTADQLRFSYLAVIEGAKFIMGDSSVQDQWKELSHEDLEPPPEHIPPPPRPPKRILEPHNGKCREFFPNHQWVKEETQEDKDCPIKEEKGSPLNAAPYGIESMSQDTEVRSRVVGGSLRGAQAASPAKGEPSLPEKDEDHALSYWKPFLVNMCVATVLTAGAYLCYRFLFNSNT
Text: The PTP1b cDNA was amplified from human placenta single strand cDNA (Clontech RNA) using the following oligonucleotides: 5′oligo: 5′-[…] (SEQ ID NO: 4) 3′oligo: 5′-[…] (SEQ ID NO: 5) It was subsequently ligated into pFasBac G2TBamH1Xba-1 sites.
as §1, §2, §3, §4, §5, §6

[1] = DiFMUP as substrate, 25° C., read-out: PTP IC50 Epilson
[2] = DiFMUP as substrate, 25° C., read-out: PTP IC50 SHP2
[3] = DiFMUP as substrate, 25° C., read-out: PTP IC50 1B

IC50 (PTP EPSILON; [1]) [µM] | IC50 (PTP SHP2; [2]) [µM] | IC50 (PTP 1B; [3]) [µM] | Compound | IC50 (PTP EPSILON) [µM] | IC50 (PTP SHP2) [µM] | IC50 (PTP 1B) [µM]
1.5 | 1.2 | 3.7 | CCOC(=O)c1cccc(NC(=O)c2ccc(-c3nc4cc(S(=O)(=O)C(F)(F)F)ccc4n3CC)cc2)c1 [Example 39, 3-[4-(1-Ethyl-5-trifluoromethanesulfonyl-1H-benzoimidazol-2-yl)-benzoylamino]-benzoic acid ethyl ester] | – | – | –
13.5 | 19 | > 20 | CCNC(=O)c1ccc(-c2nc3cc(S(=O)(=O)C(F)(F)F)ccc3n2CC)cc1 [Example 41, N-Ethyl-4-(1-ethyl-5-trifluoromethanesulfonyl-1H-benzoimidazol-2-yl)-benzamide] | – | – | –
98 | > 100 | > 20 | CCn1c(C(=O)O)nc2cc(S(=O)(=O)C(F)(F)F)ccc21 [Example 42, 1-Ethyl-5-trifluoromethanesulfonyl-1H-benzoimidazole-2-carboxylic acid] | – | – | –
53.9 | 74.6 | > 20 | CCCCN(C(=O)c1ccccc1)C(C(=O)NCC(=O)OC)c1ccc(S(=O)(=O)C(F)(F)F)cc1 (stereo not drawn) [Example 43, [2-(Benzoyl-butyl-amino)-2-(4-trifluoromethanesulfonyl-phenyl)-acetylamino]-acetic acid methyl ester] | – | – | –
19 | 22.7 | 15.8 | CCCCNC(=O)C(c1ccc(S(=O)(=O)C(F)(F)F)cc1)N(Cc1ccccc1)C(=O)c1ccccc1 (stereo not drawn) [Example 44, N-Benzyl-N-[butylcarbamoyl-(4-trifluoromethanesulfonyl-phenyl)-methyl]-benzamide] | – | – | –
> 100 | > 100 | > 100 | CCOC(=O)CNC(=O)C(c1ccc(S(=O)(=O)C(F)(F)F)cc1)N(C(C)=O)C1CC1 (stereo not drawn) [Example 46, [2-(Acetyl-cyclopropyl-amino)-2-(4-trifluoromethanesulfonyl-phenyl)-acetylamino]-acetic acid ethyl ester] | – | – | –
64.5 | 8 | > 20 | O=C(O)COc1ccc(S(=O)(=O)c2ccc(Oc3ccc(S(=O)(=O)C(F)(F)F)cc3[N+](=O)[O-])cc2)cc1 [Example 52, {4-[4-(2-Nitro-4-trifluoromethanesulfonyl-phenoxy)-benzenesulfonyl]-phenoxy}-acetic acid] | – | – | –
29.1 | 4.4 | 9.4 | O=[N+]([O-])c1ccccc1NCC(O)COc1ccc(S(=O)(=O)C(F)(F)F)cc1[N+](=O)[O-] (stereo not drawn) [Example 58, 1-(2-Nitro-phenylamino)-3-(2-nitro-4-trifluoromethanesulfonyl-phenoxy)-propan-2-ol] | – | – | –
50.9 | 4.8 | 16.2 | O=[N+]([O-])c1ccc(NCC(O)COc2ccc(S(=O)(=O)C(F)(F)F)cc2[N+](=O)[O-])cc1 (stereo not drawn) [Example 60, 1-(4-Nitro-phenylamino)-3-(2-nitro-4-trifluoromethanesulfonyl-phenoxy)-propan-2-ol] | – | – | –
> 20 | > 100 | > 100 | O=C(O)c1cc2cc(NS(=O)(=O)C(F)(F)F)ccc2[nH]1 [Example 77, 5-Trifluoromethanesulfonylamino-1H-indole-2-carboxylic acid] | – | – | –

More lines, now with the values behind:

Compound | IC50 (PTP EPSILON; [1]) [µM] | IC50 (PTP SHP2; [2]) [µM] | IC50 (PTP 1B; [3]) [µM] | IC50 (PTP EPSILON) [µM] | IC50 (PTP SHP2) [µM] | IC50 (PTP 1B) [µM]
CCn1c(-c2ccc(C(=O)NCCN3CCCC3)cc2)nc2cc(S(=O)(=O)C(F)(F)F)ccc21 [Example 40, 4-(1-Ethyl-5-trifluoromethanesulfonyl-1H-benzoimidazol-2-yl)-N-(2-pyrrolidin-1-yl-ethyl)-benzamide] | > 100 | > 100 | > 20 | – | – | –
CCCCNC(=O)C(c1ccc(S(=O)(=O)C(F)(F)F)cc1)N(CCO)C(=O)c1ccccc1 (stereo not drawn) [Example 45, N-[Butylcarbamoyl-(4-trifluoromethanesulfonyl-phenyl)-methyl]-N-(2-hydroxy-ethyl)-benzamide] | > 100 | > 100 | > 100 | – | – | –
Cc1cccc(C)c1NC(=O)C(c1ccc(S(=O)(=O)C(F)(F)F)cc1)N(C(=O)c1ccccc1)C1CCCCC1 (stereo not drawn) [Example 49, N-Cyclohexyl-N-[(2,6-dimethyl-phenylcarbamoyl)-(4-trifluoromethanesulfonyl-phenyl)-methyl]-benzamide] | 9.3 | 10.6 | 8.3 | – | – | –
CCCN(C(C)=O)C(C(=O)NCC(=O)OCC)c1ccc(S(=O)(=O)C(F)(F)F)cc1 (stereo not drawn) [Example 50, [2-(Acetyl-propyl-amino)-2-(4-trifluoromethanesulfonyl-phenyl)-acetylamino]-acetic acid ethyl ester] | > 100 | > 100 | > 100 | – | – | –
CCOC(=O)CNC(=O)C(c1ccc(S(=O)(=O)C(F)(F)F)cc1)N(C(C)=O)C1CCCCC1 (stereo not drawn) [Example 51, [2-(Acetyl-cyclohexyl-amino)-2-(4-trifluoromethanesulfonyl-phenyl)-acetylamino]-acetic acid ethyl ester] | > 100 | > 100 | > 100 | – | – | –
O=C(O)c1ccc(OCCOc2ccc(S(=O)(=O)C(F)(F)F)cc2[N+](=O)[O-])cc1 [Example 53, 4-[2-(2-Nitro-4-trifluoromethanesulfonyl-phenoxy)-ethoxy]-benzoic acid] | 22.2 | 1.5 | 1.5 | – | – | –
O=[N+]([O-])c1ccc(NCC(COc2ccc(S(=O)(=O)C(F)(F)F)cc2[N+](=O)[O-])Oc2ccc(S(=O)(=O)C(F)(F)F)cc2[N+](=O)[O-])cc1 (stereo not drawn) [Example 59, [2,3-Bis-(2-nitro-4-trifluoromethanesulfonyl-phenoxy)-propyl]-(4-nitro-phenyl)-amine] | – | – | – | 38.1 | 0.2 | 0.9
O=[N+]([O-])c1cc(S(=O)(=O)C(F)(F)F)ccc1Oc1ccc(S(=O)(=O)c2ccc(Oc3ccc(S(=O)(=O)C(F)(F)F)cc3[N+](=O)[O-])cc2)cc1 [Example 63, Bis-{[4-(2-nitro-4-trifluoromethanesulfonyl)-phenoxy]-phenyl}sulfone] | – | – | – | 2.4 | 0.4 | 0.7
